Assay: wn = mass fraction of the nth substance listed
Details: Gas, Steady Flow

[C-]#[O+] [carbon monoxide] + [HH]
binary diffusion coefficient [m2/s], w2 = 0.5
Details | 250 K | 300 K | 350 K | 400 K | 500 K | 600 K | 700 K | 800 K | 900 K
100 kPa | 5.6e-05 | 7.7e-05 | 0.000101 | 0.000127 | 0.000188 | 0.000258 | 0.000337 | 0.000425 | 0.000522
4000 kPa | 1.32e-05 | 1.96e-05 | 2.58e-05 | 3.28e-05 | 4.84e-05 | 6.6e-05 | 8.7e-05 | 0.000109 | 0.000134
7000 kPa | 8e-06 | 1.16e-05 | 1.52e-05 | 1.96e-05 | 2.89e-05 | 3.97e-05 | 5.14e-05 | 6.5e-05 | 7.9e-05
10000 kPa | 5.6e-06 | 8.1e-06 | 1.09e-05 | 1.38e-05 | 2.03e-05 | 2.79e-05 | 3.63e-05 | 4.55e-05 | 5.58e-05
15000 kPa | 4e-06 | 5.6e-06 | 7.4e-06 | 9.4e-06 | 1.42e-05 | 1.96e-05 | 2.63e-05 | 3.35e-05 | 4.2e-05

[HH] [hydrogen] + C
binary diffusion coefficient [m2/s], w1 = 0.5
Details | 250 K | 280 K | 320 K | 400 K | 480 K | 560 K | 640 K | 720 K | 800 K | 900 K
100 kPa | 5.3e-05 | 6.6e-05 | 8.3e-05 | 0.000124 | 0.000173 | 0.000227 | 0.00029 | 0.00036 | 0.000434 | 0.00054
4000 kPa | 1.32e-05 | 1.84e-05 | 2.31e-05 | 3.62e-05 | 5.1e-05 | 6.7e-05 | 8.4e-05 | 0.000106 | 0.000129 | 0.000159
7000 kPa | 6.3e-06 | 8.5e-06 | 1.17e-05 | 1.82e-05 | 2.52e-05 | 3.43e-05 | 4.35e-05 | 5.4e-05 | 6.5e-05 | 8.1e-05
10000 kPa | 3.8e-06 | 5.4e-06 | 7.5e-06 | 1.2e-05 | 1.72e-05 | 2.3e-05 | 2.93e-05 | 3.61e-05 | 4.41e-05 | 5.42e-05
15000 kPa | 2.91e-06 | 4.05e-06 | 5.8e-06 | 9.5e-06 | 1.36e-05 | 1.79e-05 | 2.28e-05 | 2.81e-05 | 3.37e-05 | 4.11e-05

[HH] [hydrogen] + CC
binary diffusion coefficient [m2/s], w1 = 0.5
Details | 250 K | 280 K | 320 K | 400 K | 480 K | 560 K | 640 K | 720 K | 800 K | 900 K
100 kPa | 4.29e-05 | 5.2e-05 | 6.5e-05 | 9.5e-05 | 0.000131 | 0.00017 | 0.000212 | 0.000261 | 0.000313 | 0.000382
3500 kPa | – | – | 1.46e-05 | 2.53e-05 | 3.6e-05 | 4.81e-05 | 6.2e-05 | 7.6e-05 | 9.1e-05 | 0.00011
7000 kPa | – | – | 3.3e-06 | 1.15e-05 | 1.75e-05 | 2.4e-05 | 3.1e-05 | 3.81e-05 | 4.61e-05 | 5.59e-05
10500 kPa | – | – | 2.4e-06 | 6.8e-06 | 1.13e-05 | 1.58e-05 | 2.04e-05 | 2.52e-05 | 3e-05 | 3.72e-05
14000 kPa | – | – | 2.21e-06 | 5e-06 | 8.6e-06 | 1.2e-05 | 1.58e-05 | 1.94e-05 | 2.33e-05 | 2.83e-05

[HH] [hydrogen] + CCC
binary diffusion coefficient [m2/s], w1 = 0.5
Details | 250 K | 280 K | 320 K | 400 K | 480 K | 560 K | 640 K | 720 K | 800 K | 900 K
100 kPa | 3.28e-05 | 4.01e-05 | 5e-05 | 7.4e-05 | 0.000101 | 0.000131 | 0.000164 | 0.0002 | 0.00024 | 0.000292
3500 kPa | – | – | – | 1.6e-05 | 2.58e-05 | 3.56e-05 | 4.57e-05 | 5.63e-05 | 6.8e-05 | 8.3e-05
7000 kPa | – | – | – | 4.5e-06 | 1.14e-05 | 1.7e-05 | 2.21e-05 | 2.78e-05 | 3.37e-05 | 4.24e-05
10500 kPa | – | – | – | 2.98e-06 | 6.8e-06 | 1.07e-05 | 1.47e-05 | 1.83e-05 | 2.23e-05 | 2.83e-05
14000 kPa | – | – | – | 2.72e-06 | 4.9e-06 | 7.89e-06 | 1.08e-05 | 1.37e-05 | 1.65e-05 | 2.04e-05

[HH] [hydrogen] + N#N
binary diffusion coefficient [m2/s], w1 = 0.5
Details | 250 K | 300 K | 350 K | 400 K | 500 K | 600 K | 700 K | 800 K | 900 K
100 kPa | 5.86e-05 | 8e-05 | 0.000104 | 0.000131 | 0.000192 | 0.000261 | 0.00034 | 0.000427 | 0.000523
4000 kPa | 1.52e-05 | 2.04e-05 | 2.68e-05 | 3.37e-05 | 4.95e-05 | 6.8e-05 | 8.8e-05 | 0.00011 | 0.000134
7000 kPa | 8.8e-06 | 1.24e-05 | 1.63e-05 | 2.05e-05 | 3.01e-05 | 4.1e-05 | 5.32e-05 | 6.65e-05 | 8.11e-05
10000 kPa | 6e-06 | 8.5e-06 | 1.13e-05 | 1.41e-05 | 2.07e-05 | 2.82e-05 | 3.65e-05 | 4.56e-05 | 5.55e-05
15000 kPa | 4.21e-06 | 6e-06 | 7.9e-06 | 9.8e-06 | 1.45e-05 | 1.96e-05 | 2.51e-05 | 3.15e-05 | 3.8e-05
